Measurements as given in PubChem BioAssay AID256 (DTP/NCI, 2004).
“And” between values parts separate entries of the source, which are not always exact repeats. Identical values can stand only once. Toxic doses and inconclusive results are not listed.

Test system: CD2F1 mice, L1210 leukemia ip, survival T/C
Assay: NCI In Vivo Anticancer Drug Screen. Data for tumor model L1210 Leukemia (intraperitoneal) in CD2F1 (CDF1) mice
Details: higher = longer survival
How it was run: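 Read-out first: treated-group measurement over vehicle-control measurement, expressed as a ratio. Animals bore a transplanted tumor line and were dosed with compound or vehicle.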

[1] = endpoint: mean survival time, dose: 100.0 mg/kg/injection, schedule: Q01DX009 (ip), vehicle: saline
[2] = endpoint: mean survival time, dose: 200.0 mg/kg/injection, schedule: Q01DX009 (ip), vehicle: saline
[3] = endpoint: mean survival time, dose: 400.0 mg/kg/injection, schedule: Q01DX009 (ip), vehicle: saline
[4] = endpoint: mean survival time, dose: 25.0 mg/kg/injection, schedule: Q01DX009 (ip), vehicle: saline
[5] = endpoint: mean survival time, dose: 50.0 mg/kg/injection, schedule: Q01DX009 (ip), vehicle: saline
[6] = endpoint: mean survival time, dose: 100.0 mg/kg/injection, schedule: Q04DX003 (ip), vehicle: saline
[7] = endpoint: mean survival time, dose: 200.0 mg/kg/injection, schedule: Q04DX003 (ip), vehicle: saline
[8] = endpoint: mean survival time, dose: 400.0 mg/kg/injection, schedule: Q04DX003 (ip), vehicle: saline
[9] = endpoint: mean survival time, dose: 100.0 mg/kg/injection, schedule: Q04DX003 (ip), vehicle: saline with Tween-80
[10] = endpoint: median survival time, dose: 100.0 mg/kg/injection, schedule: Q01DX005 (ip), vehicle: saline
[11] = endpoint: mean survival time, dose: 200.0 mg/kg/injection, schedule: Q04DX003 (ip), vehicle: saline with Tween-80
[12] = endpoint: mean survival time, dose: 12.5 mg/kg/injection, schedule: Q01DX009 (ip), vehicle: saline with Tween-80
[13] = endpoint: mean survival time, dose: 25.0 mg/kg/injection, schedule: Q01DX009 (ip), vehicle: saline with Tween-80
[14] = endpoint: mean survival time, dose: 50.0 mg/kg/injection, schedule: Q01DX009 (ip), vehicle: saline with Tween-80
[15] = endpoint: mean survival time, dose: 100.0 mg/kg/injection, schedule: Q01DX009 (ip), vehicle: saline with Tween-80
[16] = endpoint: mean survival time, dose: 100.0 mg/kg/injection, schedule: Q01DX001 (ip), vehicle: saline with Tween-80
[17] = endpoint: mean survival time, dose: 200.0 mg/kg/injection, schedule: Q01DX001 (ip), vehicle: saline with Tween-80
[18] = endpoint: mean survival time, dose: 200.0 mg/kg/injection, schedule: Q01DX009 (ip), vehicle: saline with Tween-80
[19] = endpoint: mean survival time, dose: 400.0 mg/kg/injection, schedule: Q01DX001 (ip), vehicle: saline with Tween-80

Compound: COc1cc(CC#N)ccc1C
- T/C (endpoint: mean survival time, dose: 12.5 mg/kg/injection, schedule: Q04DX003 (ip), vehicle: acetone): 97 % of control
- T/C (endpoint: mean survival time, dose: 25.0 mg/kg/injection, schedule: Q04DX003 (ip), vehicle: acetone): 101 % of control
- T/C (endpoint: mean survival time, dose: 50.0 mg/kg/injection, schedule: Q04DX003 (ip), vehicle: acetone): 102 % of control

Compound: S=C=Nc1cccc(Cl)c1
- T/C (endpoint: mean survival time, dose: 75.0 mg/kg/injection, schedule: Q01DX009 (ip), vehicle: saline with Tween-80): 95 % of control and 100 % of control
- T/C (endpoint: mean survival time, dose: 150.0 mg/kg/injection, schedule: Q01DX009 (ip), vehicle: saline with Tween-80): 100 % of control
- T/C (endpoint: mean survival time, dose: 300.0 mg/kg/injection, schedule: Q01DX009 (ip), vehicle: saline with Tween-80): 86 % of control

Compound: c1ccc2c(c1)-c1nc3ccccc3cc1C2N1CCCCC1 (configuration not stated)
- T/C [1]: 105 % of control
- T/C [2]: 103 % of control
- T/C [3]: 97 % of control

Compound: CC1OC(O)CC(NC(=O)C(F)(F)F)C1O (configuration not stated)
- T/C (endpoint: mean survival time, dose: 25.0 mg/kg/injection, schedule: Q01DX005 (ip), vehicle: water): 98 % of control
- T/C (endpoint: mean survival time, dose: 50.0 mg/kg/injection, schedule: Q01DX005 (ip), vehicle: water): 95 % of control
- T/C (endpoint: mean survival time, dose: 100.0 mg/kg/injection, schedule: Q01DX005 (ip), vehicle: water): 98 % of control
- T/C (endpoint: mean survival time, dose: 200.0 mg/kg/injection, schedule: Q01DX005 (ip), vehicle: water): 107 % of control
- T/C (endpoint: mean survival time, dose: 400.0 mg/kg/injection, schedule: Q01DX005 (ip), vehicle: water): 98 % of control

Compound: C[S+](C)C
- T/C [4]: 101 % of control
- T/C [5]: 100 % of control
- T/C [1]: 104 % of control
- T/C [6]: 101 % of control
- T/C [2]: 98 % of control
- T/C [7]: 101 % of control
- T/C [3]: 102 % of control
- T/C [8]: 104 % of control

Compound: Cc1ccc([Si](C)(C)c2ccccc2)cc1
- T/C (endpoint: mean survival time, dose: 75.0 mg/kg/injection, schedule: Q01DX001 (ip), vehicle: saline): 97 % of control
- T/C (endpoint: mean survival time, dose: 150.0 mg/kg/injection, schedule: Q01DX001 (ip), vehicle: saline): 101 % of control

Compound: CC1(C(F)(F)F)CC(=O)NN1 (configuration not stated)
- T/C (endpoint: mean survival time, dose: 12.5 mg/kg/injection, schedule: Q01DX009 (ip), vehicle: saline): 95 % of control
- T/C [4]: 97 % of control
- T/C [5]: 97 % of control
- T/C [9]: 97 % of control

Compound: CN=NN(C)C(=O)NC
- T/C (endpoint: median survival time, dose: 6.25 mg/kg/injection, schedule: Q01DX005 (ip), vehicle: saline): 110 % of control
- T/C (endpoint: median survival time, dose: 12.5 mg/kg/injection, schedule: Q01DX005 (ip), vehicle: saline): 120 % of control
- T/C (endpoint: median survival time, dose: 60.0 mg/kg/injection, schedule: Q01DX005 (ip), vehicle: saline): 186 % of control
- T/C [10]: 204 % of control

Compound: NC1CCCCC1N.Nc1c(N=Nc2ccc(-c3ccc(N=Nc4cc(S(=O)(=O)[O-])c5ccccc5c4N)cc3)cc2)cc(S(=O)(=O)[O-])c2ccccc12.[OH3+].[OH3+].[Pt+4]
- T/C (endpoint: median survival time, dose: 3.12 mg/kg/injection, schedule: Q04DX003 (ip), vehicle: saline with Tween-80): 108 % of control
- T/C (endpoint: median survival time, dose: 6.25 mg/kg/injection, schedule: Q04DX003 (ip), vehicle: saline with Tween-80): 100 % of control
- T/C (endpoint: median survival time, dose: 12.5 mg/kg/injection, schedule: Q04DX003 (ip), vehicle: saline with Tween-80): 102 % of control
- T/C (endpoint: median survival time, dose: 25.0 mg/kg/injection, schedule: Q04DX003 (ip), vehicle: saline with Tween-80): 98 % of control
- T/C (endpoint: median survival time, dose: 50.0 mg/kg/injection, schedule: Q04DX003 (ip), vehicle: saline with Tween-80): 106 % of control
- T/C (endpoint: median survival time, dose: 100.0 mg/kg/injection, schedule: Q04DX003 (ip), vehicle: saline with Tween-80): 97 % of control
- T/C (endpoint: median survival time, dose: 200.0 mg/kg/injection, schedule: Q04DX003 (ip), vehicle: saline with Tween-80): 100 % of control

Compound: Cc1ccc(C)c2c1CC/C(=C\c1ccccc1[N+](=O)[O-])C2=O
- T/C [9]: 96 % of control
- T/C [11]: 97 % of control
- T/C (endpoint: mean survival time, dose: 400.0 mg/kg/injection, schedule: Q04DX003 (ip), vehicle: saline with Tween-80): 91 % of control

Compound: CC(C)NC(=O)C1CC2c3cccc4c3C(CN4)CC2N(C)C1 (configuration not stated)
- T/C (endpoint: mean survival time, dose: 12.5 mg/kg/injection, schedule: Q04DX002 (ip), vehicle: saline with Tween-80): 98 % of control
- T/C (endpoint: mean survival time, dose: 25.0 mg/kg/injection, schedule: Q04DX002 (ip), vehicle: saline with Tween-80): 95 % of control
- T/C (endpoint: mean survival time, dose: 50.0 mg/kg/injection, schedule: Q04DX002 (ip), vehicle: saline with Tween-80): 98 % of control

Compound: O=c1ccn(C2CC3[O][Sn]([c]4ccccc4)([c]4ccccc4)[O]CC3O2)c(=O)[nH]1 (configuration not stated)
- T/C (endpoint: mean survival time, dose: 6.25 mg/kg/injection, schedule: Q01DX005 (ip), vehicle: distilled water + Tween-80): 104 % of control
- T/C (endpoint: mean survival time, dose: 12.5 mg/kg/injection, schedule: Q01DX005 (ip), vehicle: distilled water + Tween-80): 98 % of control
- T/C (endpoint: mean survival time, dose: 25.0 mg/kg/injection, schedule: Q01DX005 (ip), vehicle: distilled water + Tween-80): 108 % of control
- T/C (endpoint: mean survival time, dose: 100.0 mg/kg/injection, schedule: Q01DX005 (ip), vehicle: distilled water + Tween-80): 90 % of control

Compound: COc1ccc(C(Cn2ccnc2)Sc2ccc(Cl)c(Cl)c2)cc1 (configuration not stated)
- T/C (endpoint: mean survival time, dose: 6.25 mg/kg/injection, schedule: Q01DX009 (ip), vehicle: saline with Tween-80): 96 % of control and 103 % of control
- T/C [12]: 103 % of control and 104 % of control
- T/C [13]: 98 % of control and 101 % of control
- T/C [14]: 96 % of control and 108 % of control
- T/C [15]: 101 % of control and 105 % of control

Compound: Nc1cn2ncnc2c(=O)[nH]1
- T/C (endpoint: median survival time, dose: 50.0 mg/kg/injection, schedule: Q01DX005 (ip), vehicle: saline): 106 % of control
- T/C [10]: 106 % of control
- T/C (endpoint: median survival time, dose: 200.0 mg/kg/injection, schedule: Q01DX005 (ip), vehicle: saline): 113 % of control

Compound: CCOC(=O)c1cnc(SC)nc1NC(C)c1ccccc1 (configuration not stated)
- T/C [16]: 94 % of control
- T/C [15]: 97 % of control
- T/C [17]: 88 % of control
- T/C [18]: 89 % of control
- T/C [19]: 89 % of control
- T/C (endpoint: mean survival time, dose: 400.0 mg/kg/injection, schedule: Q01DX009 (ip), vehicle: saline with Tween-80): 94 % of control

Compound: OC(c1ccccc1)(c1ccc2ccccc2n1)c1cccs1 (configuration not stated)
- T/C [6]: 102 % of control
- T/C [7]: 90 % of control
- T/C [8]: 90 % of control

Compound: CCCC/C=C/COCC
- T/C [14]: 97 % of control
- T/C [15]: 94 % of control
- T/C [18]: 97 % of control

Compound: CC(C)(O)CCC(C)(O)C1CCC2C3CCC4CC(O)CCC4(C)C3CCC21C (configuration not stated)
- T/C [16]: 92 % of control
- T/C [17]: 93 % of control
- T/C [19]: 86 % of control

Compound: Cc1ccc(NC(=O)c2cccc(C(=O)Nc3ccc(C)cc3C)c2)c(C)c1
- T/C [12]: 94 % of control
- T/C [13]: 90 % of control
- T/C [14]: 89 % of control

Compound: CC1OC(OCc2ccc(-c3ccccc3)cc2)CC(N)C1O (configuration not stated)
- T/C (endpoint: mean survival time, dose: 0.78 mg/kg/injection, schedule: Q01DX001 (ip), vehicle: water): 94 % of control
- T/C (endpoint: mean survival time, dose: 1.56 mg/kg/injection, schedule: Q01DX001 (ip), vehicle: water): 97 % of control
- T/C (endpoint: mean survival time, dose: 3.13 mg/kg/injection, schedule: Q01DX001 (ip), vehicle: water): 95 % of control
- T/C (endpoint: mean survival time, dose: 6.25 mg/kg/injection, schedule: Q01DX001 (ip), vehicle: water): 106 % of control
- T/C (endpoint: mean survival time, dose: 12.5 mg/kg/injection, schedule: Q01DX001 (ip), vehicle: water): 97 % of control
- T/C (endpoint: mean survival time, dose: 25.0 mg/kg/injection, schedule: Q01DX001 (ip), vehicle: water): 105 % of control
- T/C (endpoint: median survival time, dose: 1.56 mg/kg/injection, schedule: Q04DX003 (ip), vehicle: water): 106 % of control
- T/C (endpoint: median survival time, dose: 3.13 mg/kg/injection, schedule: Q04DX003 (ip), vehicle: water): 98 % of control
- T/C (endpoint: median survival time, dose: 6.25 mg/kg/injection, schedule: Q04DX003 (ip), vehicle: water): 109 % of control
- T/C (endpoint: median survival time, dose: 12.5 mg/kg/injection, schedule: Q04DX003 (ip), vehicle: water): 100 % of control
- T/C (endpoint: median survival time, dose: 25.0 mg/kg/injection, schedule: Q04DX003 (ip), vehicle: water): 106 % of control

Compound: COc1ccc(OC)c(/C=C(\C#N)c2ccc([N+](=O)[O-])cc2)c1
- T/C (endpoint: mean survival time, dose: 16.5 mg/kg/injection, schedule: Q01DX009 (ip), vehicle: saline with Tween-80): 87 % of control
- T/C [13]: 87 % of control
- T/C [15]: 90 % of control
- T/C [9]: 91 % of control
- T/C [18]: 86 % of control
- T/C [11]: 101 % of control
